Laboratory results: patent US10160762B2, “6-alkyl dihydropyrazolopyrimidinone compounds as PDE2 inhibitors” (Merck Sharp & Dohme Corp., priority 2015, dated 2018)
Read-outs that look alike come from different tables or passages of the source.

Biological target: T1, Rhesus PDE2A3 (Macaca mulatta, UniProt B3VTJ2)
T1 construct: made in house; host or cells: AD293 cells, transient transfection; supernatant of sonicated lysate
T1 sequence (B3VTJ2 1-941): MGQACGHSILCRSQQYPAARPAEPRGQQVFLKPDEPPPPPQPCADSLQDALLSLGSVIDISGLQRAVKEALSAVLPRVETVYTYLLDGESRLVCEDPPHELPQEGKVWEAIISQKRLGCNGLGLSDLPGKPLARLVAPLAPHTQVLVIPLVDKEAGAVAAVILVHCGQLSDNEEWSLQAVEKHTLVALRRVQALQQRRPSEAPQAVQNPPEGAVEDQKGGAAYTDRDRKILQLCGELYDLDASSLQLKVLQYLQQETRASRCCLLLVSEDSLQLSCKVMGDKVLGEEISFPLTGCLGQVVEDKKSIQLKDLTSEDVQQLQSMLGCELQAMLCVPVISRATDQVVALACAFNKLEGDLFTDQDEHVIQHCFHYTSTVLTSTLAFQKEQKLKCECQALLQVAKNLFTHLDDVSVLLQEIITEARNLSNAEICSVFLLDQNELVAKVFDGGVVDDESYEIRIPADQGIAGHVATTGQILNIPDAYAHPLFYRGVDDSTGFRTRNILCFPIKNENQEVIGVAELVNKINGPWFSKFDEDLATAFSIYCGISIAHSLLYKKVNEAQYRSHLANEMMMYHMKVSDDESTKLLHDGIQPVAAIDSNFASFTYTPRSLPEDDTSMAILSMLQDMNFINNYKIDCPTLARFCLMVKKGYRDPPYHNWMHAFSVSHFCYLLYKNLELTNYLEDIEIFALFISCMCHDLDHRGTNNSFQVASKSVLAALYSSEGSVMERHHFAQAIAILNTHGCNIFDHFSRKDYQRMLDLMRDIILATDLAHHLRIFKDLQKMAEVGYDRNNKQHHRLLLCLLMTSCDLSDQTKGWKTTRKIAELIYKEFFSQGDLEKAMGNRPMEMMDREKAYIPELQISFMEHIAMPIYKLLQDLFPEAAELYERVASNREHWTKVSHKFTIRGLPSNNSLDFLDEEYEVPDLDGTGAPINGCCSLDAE
Test: PDE2 fluorescence polarization (IMAP FP) inhibition assay, rhesus PDE2A3
Assay type: biochemical, rhesus macaque
Procedure, shortened: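 Enzyme source was the lysate supernatant of AD293 cells transiently expressing rhesus PDE2A3, diluted to give 20% conversion of 50 nM FAM-cAMP, with 1 µM cGMP as activator. Buffer was 10 mM Tris pH 7.2, 10 mM MgCl2, 1 mM DTT.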

[1] = Lab A, read-out: Rhesus PDE2 Ki (nM) Lab A
[2] = Lab B, read-out: Rhesus PDE2 Ki (nM) Lab B

| Structure (SMILES) | Ki [1] | Ki [2] |
| --- | --- | --- |
| Cc1nc2c(c(CO)nn2C(C)c2ccc(OC(F)(F)F)c(F)c2)c(=O)[nH]1 (single isomer, unassigned) [Example 10, (R)- or (S)-1-(1-(3-Fluoro-4-(trifluoromethoxy)phenyl)ethyl)-3-(hydroxymethyl)-6-methyl-1H-pyrazolo[3,4-d]pyrimidin-4(5H)-one] | 39 nM | 103 nM |
| Cc1nc2c(c(CO)nn2C(C)c2ccc(OC(F)(F)F)c(F)c2)c(=O)[nH]1 (single isomer, unassigned) [Example 11, (S)- or (R)-1-(1-(3-Fluoro-4-(trifluoromethoxy)phenyl)ethyl)-3-(hydroxymethyl)-6-methyl-1H-pyrazolo[3,4-d]pyrimidin-4(5H)-one] | 0.85 nM | 2 nM |
| Cc1nc2c(c(CO)nn2C(C)c2ccc(C(F)(F)F)c(F)c2)c(=O)[nH]1 (single isomer, unassigned) [Example 12, (R)- or (S)-1-(1-(3-Fluoro-4-(trifluoromethyl)phenyl)ethyl)-3-(hydroxymethyl)-6-methyl-1H-pyrazolo[3,4-d]pyrimidin-4(5H)-one] | 278 nM | 514 nM |
| Cc1nc2c(c(CO)nn2C(C)c2ccc(C(F)(F)F)c(F)c2)c(=O)[nH]1 (single isomer, unassigned) [Example 13, (S)- or (R)-1-(1-(3-Fluoro-4-(trifluoromethyl)phenyl)ethyl)-3-(hydroxymethyl)-6-methyl-1H-pyrazolo[3,4-d]pyrimidin-4(5H)-one] | 1.3 nM | 3 nM |
| Cc1nc2c(c(CO)nn2C(C)c2ccc(C(F)(F)F)cc2)c(=O)[nH]1 (single isomer, unassigned) [Example 26, (R)- or (S)-3-(Hydroxymethyl)-6-methyl-1-{1-[4-(trifluoromethyl)phenyl]ethyl}-1,5-dihydro-4H-pyrazolo[3,4-d]pyrimidin-4-one] | 216 nM | 456 nM |
| Cc1nc2c(c(CO)nn2C(C)c2ccc(C(F)(F)F)cc2)c(=O)[nH]1 (single isomer, unassigned) [Example 27, (S)- or (R)-3-(Hydroxymethyl)-6-methyl-1-{1-[4-(trifluoromethyl)phenyl]ethyl]-1,5-dihydro-4H-pyrazolo[3,4-d]pyrimidin-4-one] | 2 nM | 2.1 nM |
| Cc1nc2c(c(C)nn2C(C)c2ccc(C(F)(F)F)cc2)c(=O)[nH]1 (single isomer, unassigned) [Example 36] | 443 nM | – |
| Cc1nc2c(c(C)nn2C(C)c2ccc(C(F)(F)F)cc2)c(=O)[nH]1 (single isomer, unassigned) [Example 37] | 23 nM | – |
| Cc1nc2c(c(CO)nn2C(c2ccc(OC(F)(F)F)cc2)C2CC2)c(=O)[nH]1 (single isomer, unassigned) [Example 94, (R)- or (S)-1-(Cyclopropyl(4-(trifluoromethoxy)phenyl)methyl)-3-(hydroxymethyl)-6-methyl-1H-pyrazolo[3,4-d]pyrimidin-4(5H)-one] | – | 18 nM |
| Cc1nc2c(c(CO)nn2C(c2ccc(OC(F)(F)F)cc2)C2CC2)c(=O)[nH]1 (single isomer, unassigned) [Example 95, (S)- or (R)-1-(Cyclopropyl(4-(trifluoromethoxy)phenyl)methyl)-3-(hydroxymethyl)-6-methyl-1H-pyrazolo[3,4-d]pyrimidin-4(5H)-one] | – | 2.1 nM |
| Cc1nc2c(c(CO)nn2C(c2ccc(OC(F)(F)F)c(F)c2)C(C)C)c(=O)[nH]1 (single isomer, unassigned) [Example 126, (R)- or (S)-1-(1-(3-Fluoro-4-(trifluoromethoxy)phenyl)-2-methylpropyl)-3-(hydroxyl-methyl)-6-methyl-1H-pyrazolo-[3,4-d]pyrimidin-4(5H)-one] | – | 6 nM |
| Cc1nc2c(c(CO)nn2C(c2ccc(OC(F)(F)F)c(F)c2)C(C)C)c(=O)[nH]1 (single isomer, unassigned) [Example 127, (S)- or (R)-1-(1-(3-Fluoro-4-(trifluoromethoxy)phenyl)-2-methylpropyl)-3-(hydroxymethyl)-6-methyl-1H-pyrazolo[3,4-d]pyrimidin-4(5H)-one] | – | 0.9 nM |
| Cc1nc2c(c(CO)nn2C(c2ccc(C(F)(F)F)c(F)c2)C(C)(C)C)c(=O)[nH]1 (single isomer, unassigned) [Example 129, (S)- or (R)-1-(1-(3-Fluoro-4-(trifluoromethyl)phenyl)-2,2-dimethylpropyl)-3-(hydroxyl-methyl)-6-methyl-1H-pyrazolo-[3,4-d]pyrimidin-4(5H)-one] | – | 6.9 nM |
| CCC(c1ccc(C(F)(F)F)cc1)n1nc(CO)c2c(=O)[nH]c(C)nc21 (single isomer, unassigned) [Example 132, (R)- or (S)-3-(Hydroxymethyl)-6-methyl-1-(1-(4-(trifluoro-methyl)phenyl)propyl)-1H-pyrazolo[3,4-d]pyrimidin-4(5H)-one] | – | 1.5 nM |
| Cc1nc2c(c(C(F)F)nn2C(C)c2ccc(C(F)(F)F)cc2)c(=O)[nH]1 (single isomer, unassigned) [Example 176] | – | 1.4 nM |
| Cc1nc2c(c(C(F)F)nn2C(C)c2ccc(OC(F)F)cc2)c(=O)[nH]1 (single isomer, unassigned) [Example 182, (S)- or (R)-1-(1-(4-(Difluoromethoxy)phenyl)ethyl)-3-(difluoromethyl)-6-methyl-1H-pyrazolo[3,4-d]pyrimidin-4(5H)-one] | – | 1.2 nM |

The remaining lines, values ahead:

| Ki [1] | Ki [2] | Structure (SMILES) |
| --- | --- | --- |
| – | 28 nM | COc1ccc(Cc2nc3c(c(C(F)F)nn3C(C)c3ccc(C(F)(F)F)cc3)c(=O)[nH]2)cc1OC (single isomer, unassigned) [Example 196] |
| – | ~0.15 nM | COc1ccc(Cc2nc3c(c(C(F)F)nn3C(C)c3ccc(C(F)(F)F)cc3)c(=O)[nH]2)cc1OC (single isomer, unassigned) [Example 197] |
| – | 2.4 nM | Cc1nc2c(c(CF)nn2C(C)c2ccc(S(F)(F)(F)(F)F)cc2)c(=O)[nH]1 (single isomer, unassigned) [Example 200] |
| 41 nM | 123 nM | Cc1nc2c(c(CF)nn2C(C)c2ccc(OC(F)(F)F)cc2)c(=O)[nH]1 (single isomer, unassigned) [Example 206, (R)- or (S)-3-(Fluoromethyl)-6-methyl-1-(1-(4-(trifluoro-methoxy-)phenyl)ethyl)-1H-pyrazolo[3,4-d]pyrimidin-4(5H)-one] |
| 0.46 nM | 0.84 nM | Cc1nc2c(c(CF)nn2C(C)c2ccc(OC(F)(F)F)cc2)c(=O)[nH]1 (single isomer, unassigned) [Example 207, (S)- or (R)-3-(Fluoromethyl)-6-methyl-1-(1-(4-(trifluoromethoxy)phenyl)ethyl)-1H-pyrazolo[3,4-d]pyrimidin-4(5H)-one] |
| – | 1 nM | Cc1nc2c(c(CF)nn2C(c2ccc(C(F)(F)F)cc2)C2(C)CC2)c(=O)[nH]1 (single isomer, unassigned) [Example 209] |
| – | 0.49 nM | Cc1nc2c(c(CF)nn2C(C)c2ccc(CC(F)(F)F)cc2)c(=O)[nH]1 (single isomer, unassigned) [Example 211, (S)- or (R)-3-(Fluoromethyl)-6-methyl-1-(1-(4-(2,2,2-trifluoroethyl)phenyl)ethyl)-1H-pyrazolo[3,4-d]pyrimidin-4(5H)-one] |
| – | 54 nM | Cc1nc2c(c(CF)nn2C(c2ccc(C(F)(F)F)cc2)C(C)C)c(=O)[nH]1 (single isomer, unassigned) [Example 212, (R)- or (S)-3-(Fluoromethyl)-6-methyl-1-(2-methyl-1-(4-(trifluoromethyl)phenyl)propyl)-1H-pyrazolo[3,4-d]pyrimidin-4(5H)-one] |
| – | 0.15 nM | Cc1nc2c(c(CF)nn2C(c2ccc(C(F)(F)F)cc2)C(C)C)c(=O)[nH]1 (single isomer, unassigned) [Example 213, (S)- or (R)-3-(Fluoromethyl)-6-methyl-1-(2-methyl-1-(4-(trifluoromethyl)phenyl)propyl)-1H-pyrazolo[3,4-d]pyrimidin-4(5H)-one] |
| 179 nM | 318 nM | Cc1nc2c(c(CF)nn2C(C)c2ccc(C(C)(C)C)cc2)c(=O)[nH]1 (single isomer, unassigned) [Example 214, (R)- or (S)-1-(1-(4-tert-Butylphenyl)ethyl)-3-(fluoromethyl)-6-methyl-1H-pyrazolo[3,4-d]pyrimidin-4(5H)-one] |
| 0.24 nM | 0.63 nM | Cc1nc2c(c(CF)nn2C(C)c2ccc(C(C)(C)C)cc2)c(=O)[nH]1 (single isomer, unassigned) [Example 215, (S)- or (R)-1-(1-(4-tert-Butylphenyl)ethyl)-3-(fluoromethyl)-6-methyl-1H-pyrazolo[3,4-d]pyrimidin-4(5H)-one] |
